Laboratory results reported in patent US20260215887A1, “COATING COMPOSITION FOR THE TREATMENT OR PREVENTION OF PERIIMPLANTITIS AND PREPARATION METHOD THEREOF” (UNIVERSITAT JAUME I, priority 2023, published 2026).

What was measured:
[1] = test system: Streptococcus Gordonii (CECT 804); assay: Proliferation and bacterial count on inoculated grade-IV titanium disks; format: cell-based
Excerpt: The mechanism of action of the composition of Example 1 was further investigated by studying in parallel assays the proliferation of bacterial population of Streptococcus Gordonii on grade-IV titanium plates which are either uncoated or coated with M1 (free of octenidine) or M3 (2% in weight of octenidine) or with a solution of octenidine having an equivalent amount of octenidine as the composition M3. The following experimental procedure was used.
All materials used were sterile or have been previously sterilized by autoclaving. The assays were performed inside a level 2 biosafety cabinet. Three different grade IV-Ti disks were used to perform the assay. This procedure was carried out for each of the assays: First, a suspension of Streptococcus Gordonii (CECT 804) of known concentration was prepared. For this purpose, a test tube is prepared with 10 mL of d.d. H2O to which bacteria were added until the desired concentration (Concentration=1×10^6 CFU/mL). […] 500 μL of bacterial suspension of known concentration (1×10^6 CFU/mL) was then added in wells of a sterile 24-well plate. Subsequently, the grade-IV Ti disc was immersed in the bacterial suspension for 1 minute (1 disk per well) in order to inoculate the disc. […]
Once this time was elapsed, bacteria population was counted. […]

Staphylococcus aureus = settings: known in the art; cited from earlier work

SMILES: CCCCCCCCN=c1ccn(CCCCCCCCCCn2ccc(=NCCCCCCCC)cc2)cc1 [octenidine]
- proliferation of bacteria population on coated disks ([1]; after 24 hours incubation at 37° C., FIG. 22): significant reduction of bacteria proliferation
- bacterial count of bacteria adhered to the titanium surface ([1]; average of three samples per disk, 24 h at 37° C., uncoated disk 1,726 × 10^7): 483,33 CFU/mL
- minimal bactericide concentration (MBC) (Staphylococcus aureus): < 2 µg/mL
- minimal inhibitory concentration (MIC) (Staphylococcus aureus): < 2 µg/mL
